Experimental data published in US20210204539A1, “Method for Suppressing Freezing Damage and Composition for Preventing Freezing Damage” (Kyoto University, priority 2018, published 2021).

Legend:
S1PR = conditions: known; cited from earlier work
the cells = assay: Toxicity to the cells when administered at a time other than the low-temperature preservation; assay type: cell-based; conditions: e.g. during a normal-temperature preservation
[1] = system: cell line HepG2 derived from a human liver cancer; assay: Cold damage suppression, HepG2 cultured at 4° C. for 24 hours, viability after rewarming by alamarBlue (Examples 1, 5, 6); assay type: cell-based; conditions: HepG2, 4° C. 24 hours, compound 0 M to 50 μM, viability one hour after rewarming at 37° C.
Experimental: Then, the culturing at 4° C. in a low temperature incubator was performed for 24 hours. After the culturing at low temperature for 24 hours, rewarming was carried out using a medium at 37° C., and the viability of cells one hour after the rewarming was determined by detecting enzyme activity using alamarBlue™. The compound concentration was varied from 0 M (Vehicle) to 50 μM, so that the concentration dependency of the compound was observed.
Using the compounds 1 and 3 to 7 synthesized by the above-described scheme, the cell line HepG2 derived from a human liver cancer was cultured under the presence of the respective compounds at low temperature, and cold damage suppression effects were assessed.
HepG2 cells were cultured at 37° C. so as to be at a density of 80 to 90%, and thereafter, the medium was replaced with a medium (DMEM) at 4° C. to which any one of the compounds 1 and 3 to 7 had been added preliminarily. Then, the culturing at 4° C. in a low temperature incubator was performed for 24 hours. After the culturing at low temperature for 24 hours, rewarming was carried out by a medium at 37° C., and the viability of cells one hour […] determined by detecting enzyme activity using alamarBlue™. The compound concentration was varied from 0 M (Vehicle) to 50 μM, so that the concentration dependency of the compound was observed. […]

[2] = system: human umbilical vascular endothelial cell line HUEhT-2; assay: Cold storage time versus viability, HUEhT-2 (Example 2); assay type: cell-based; conditions: HUEhT-2, 10 μM
Experimental: (§1) Then, the culturing at 4° C. in a low temperature incubator was performed. The cell viability one hour after the rewarming using a medium at 37° C. was determined by detecting enzyme activity with use of alamarBlue™. The relationship between the cold storage time and the viability was observed.

S1PR5 = S1PR5 (Homo sapiens, UniProt Q9H228); conditions: reported; cited from earlier work
Chain of S1PR5 (Q9H228 whole entry, species assumed): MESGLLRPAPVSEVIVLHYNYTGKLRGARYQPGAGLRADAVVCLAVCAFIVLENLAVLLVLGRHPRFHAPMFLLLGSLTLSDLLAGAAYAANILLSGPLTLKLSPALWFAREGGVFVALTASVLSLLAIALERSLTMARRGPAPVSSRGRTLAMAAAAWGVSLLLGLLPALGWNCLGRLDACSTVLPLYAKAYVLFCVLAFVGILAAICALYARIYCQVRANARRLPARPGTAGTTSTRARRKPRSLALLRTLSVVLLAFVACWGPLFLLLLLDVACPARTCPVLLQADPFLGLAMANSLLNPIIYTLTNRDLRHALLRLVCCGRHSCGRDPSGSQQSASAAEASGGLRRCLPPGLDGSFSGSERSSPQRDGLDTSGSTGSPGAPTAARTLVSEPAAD

Flp-In™ CHO cell line = assay: Cold storage time versus viability, Flp-In CHO (Example 2); assay type: cell-based
Experimental: as §1

[3] = system: cells preserved at low temperature; assay: Cold damage suppression at varied timings of contact with the compound (Example 3); assay type: cell-based
Experimental: Cells were cultured at 37° C. so as to be at a density of 80 to 90%, and thereafter, the medium was replaced with a medium at 4° C. Then, the culturing at 4° C. in a low temperature incubator was performed. […] The cell viability one hour after the rewarming using a medium at 37° C. was determined by detecting enzyme activity with use of alamarBlue™.

[4] = system: myocardium in the hearts of transplanted rats; assay: Rat heart 24-hour cold storage and ectopic transplantation, Masson's trichrome staining (Example 4); assay type: in vivo, LEW rats; conditions: UW solution with 10 μM, 24-hour cold storage at 4° C., one week after transplantation, versus Vehicle group
Experimental: To each of 7 to 8 week-old LEW rats as recipients, laparotomy under general anesthesia was performed to expose the abdominal aorta and the vena cava. Then, the heart in cold storage was taken out of the UW solution, and ectopic transplantation was carried out, by end-to-side anastomosis between the pulmonary artery and the aorta of the donor and the abdominal vena cava and the aorta of the recipient, respectively, followed by laparotomy closure. The heart was removed one week after the transplantation, and the viable area and fibrotic area of myocardium in the heart were compared by using Masson's trichrome staining (N=5 in each group).

S1PR1 = S1PR1 (Homo sapiens, UniProt P21453); conditions: reported; cited from earlier work
Chain of S1PR1 (P21453 whole entry, species assumed): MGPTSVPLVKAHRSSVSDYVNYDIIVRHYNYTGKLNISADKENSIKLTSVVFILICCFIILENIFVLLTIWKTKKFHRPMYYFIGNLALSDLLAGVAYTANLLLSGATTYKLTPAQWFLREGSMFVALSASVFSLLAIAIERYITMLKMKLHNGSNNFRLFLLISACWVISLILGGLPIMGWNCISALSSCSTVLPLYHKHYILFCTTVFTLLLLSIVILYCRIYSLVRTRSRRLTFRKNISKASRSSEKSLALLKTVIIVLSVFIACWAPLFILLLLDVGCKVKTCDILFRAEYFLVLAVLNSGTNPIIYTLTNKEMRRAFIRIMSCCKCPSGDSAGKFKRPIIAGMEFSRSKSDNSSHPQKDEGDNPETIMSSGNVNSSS

S1PR2 = S1PR2 (Homo sapiens, UniProt O95136); conditions: reported; cited from earlier work
Chain of S1PR2 (O95136 whole entry, species assumed): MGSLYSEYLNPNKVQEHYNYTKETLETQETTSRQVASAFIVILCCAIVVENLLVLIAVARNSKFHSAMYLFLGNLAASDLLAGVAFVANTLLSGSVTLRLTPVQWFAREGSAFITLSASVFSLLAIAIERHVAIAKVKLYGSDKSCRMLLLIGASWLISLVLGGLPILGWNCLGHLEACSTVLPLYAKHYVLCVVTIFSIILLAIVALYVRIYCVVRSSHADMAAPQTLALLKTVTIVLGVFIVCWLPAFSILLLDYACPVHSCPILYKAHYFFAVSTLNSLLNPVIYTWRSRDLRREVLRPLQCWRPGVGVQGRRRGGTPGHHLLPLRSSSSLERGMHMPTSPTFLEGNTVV

[5] = system: cell line HepG2 derived from a human liver cancer; assay: Cold storage time versus viability, HepG2 (Example 2); assay type: cell-based; conditions: HepG2, 10 μM, 4° C., versus Vehicle
Experimental: as §1

S1PR4 = target: T1, S1PR4 (Homo sapiens, UniProt O95977); conditions: reported; cited from earlier work
T1 sequence (O95977 1-384): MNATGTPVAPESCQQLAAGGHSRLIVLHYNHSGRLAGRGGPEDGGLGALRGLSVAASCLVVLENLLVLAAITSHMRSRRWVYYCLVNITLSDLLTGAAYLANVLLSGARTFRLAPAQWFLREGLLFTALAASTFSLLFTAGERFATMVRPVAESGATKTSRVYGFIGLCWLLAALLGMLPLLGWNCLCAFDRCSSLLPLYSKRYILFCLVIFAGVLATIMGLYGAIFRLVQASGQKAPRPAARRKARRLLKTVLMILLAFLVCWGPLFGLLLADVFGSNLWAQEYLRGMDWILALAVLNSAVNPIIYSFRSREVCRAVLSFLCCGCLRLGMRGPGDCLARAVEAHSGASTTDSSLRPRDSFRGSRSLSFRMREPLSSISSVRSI

SMILES	S1PR antagonist (S1PR)	toxicity to the cells (the cells)	amelioration of the deterioration of cell viability during the low-temperature preservation (cold damage suppression) [1]	amelioration of the deterioration of cell viability during the low-temperature preservation ([2]; 4° C., versus Vehicle)	viability at 10 µM ([2]; Homo sapiens, Endothelial cell, 360 h, low-temperature preservation period 15 days) [%]	inhibiting activity to S1PR5 (S1PR5)	amelioration of the deterioration of cell viability during the low-temperature preservation (Flp-In™ CHO cell line; 10 μM, 4° C., versus Vehicle)	viability at 10 µM (Flp-In™ CHO cell line; Cricetulus griseus, 360 h, low-temperature preservation period 15 days) [%]	cold damage (deterioration of viability) suppression ([3]; 10 μM added simultaneously with the start of the low-temperature preservation)	cold damage (deterioration of viability) suppression ([3]; 10 μM added to the medium before the start of the low-temperature preservation)	cold damage (deterioration of viability) suppression ([3]; 10 μM added when the temperature was turned to 37° C. after the low-temperature preservation (Rewarm treat))	fibrotic area of myocardium [4]	viable area of myocardium [4]	inhibiting activity to S1PR1 (S1PR1)	inhibiting activity to S1PR2 (S1PR2)	amelioration of the deterioration of cell viability during the low-temperature preservation [5]	inhibiting activity to S1PR4 (S1PR4)
Cc1nn(C)c2nc(NNC(=O)Nc3cc(Cl)nc(Cl)c3)cc(C(C)C)c12 [Compound 2, N-(2,6-dichloro-4-pyridinyl)-2-[1,3-dimethyl-4-(1-methylethyl)-1H-pyrazolo[3,4-b]pyridin-6-yl]-hydrazinecarboxamide]	S1PR antagonists	did not exhibit toxicity	concentration-dependent amelioration	–	–	–	–	–	–	–	–	–	–	–	–	–	–
CC(C)(C)C(=O)/C(=N/c1ccc(Cl)cc1)NNc1ccc(Cl)cc1 [Compound 1, N-(4-chlorophenyl)-N′-(4-chlorophenylamino)-3,3-dimethyl-2-oxobutanamidine]	S1PR antagonists	did not exhibit toxicity	concentration-dependent amelioration	amelioration of the deterioration of cell viability	> 50	has an inhibiting activity	amelioration of the deterioration of cell viability	> 50	could be suppressed	could be suppressed	not sufficiently suppressed	less fibrotic one	more viable myocardium	has an inhibiting activity	has an inhibiting activity	amelioration of the deterioration of cell viability	has an inhibiting activity
